Values quoted from earlier work, collected in patent publication US6686317B2, “Supported fluridone compositions and methods” (SePro Corporation, priority 2001, dated 2004).
Read-outs that look alike come from different tables or passages of the source.

System: aquatic plants

For “1-methyl-3-phenyl-5-3-(trifluoromethyl)phenyl-4(1H)-pyridinone [fluridone]”, the “concentration to which plant species are usually susceptible” value (other species susceptible only to higher concentrations) is listed as 150 ppb and the “concentration to which plant species are usually susceptible” value (some (more susceptible) species, as low as) is listed as “about 5 ppb”.
